PubChem BioAssay (NCI)
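All cell lines were grown in 96-well plates and treated with compound for 48 hours. GI50 marks 50% less growth. At the TGI there is no net growth.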

How the values were obtained:
Assay in all cases: NCI-60 cell line screen, 48 h; in the data active means GI50 below about 0.43 µM; inactive means the rest
HT29 colon = tested on: HT29 colon
SW-620 colon = tested on: SW-620 colon
M14 melanoma = tested on: M14 melanoma
OVCAR-4 ovarian = tested on: OVCAR-4 ovarian
SK-MEL-28 melanoma = tested on: SK-MEL-28 melanoma
NCI-H522 lung = tested on: NCI-H522 lung
SF-268 CNS = tested on: SF-268 CNS
SN12C renal = tested on: SN12C renal
SR leukemia = tested on: SR leukemia
SK-MEL-5 melanoma = tested on: SK-MEL-5 melanoma

CC12Oc3ccc4ccccc4c3CC1Cc1c(ccc3ccccc13)O2 (stereo not given)
90.6 µM: TGI (OVCAR-4 ovarian)
> 100 µM: TGI (HT29 colon) | TGI (SW-620 colon) | TGI (M14 melanoma) | TGI (SK-MEL-28 melanoma) | TGI (NCI-H522 lung) | TGI (SF-268 CNS)

COC(=O)C1=CC2OC1(C)CCC2=O (stereo not given)
> 100 µM: TGI (HT29 colon) | TGI (SN12C renal) | TGI (SW-620 colon) | TGI (M14 melanoma) | TGI (OVCAR-4 ovarian) | TGI (SK-MEL-28 melanoma) | TGI (NCI-H522 lung) | TGI (SR leukemia) | TGI (SF-268 CNS)

O=S(=O)(NCCNc1nccc(-c2c(-c3ccc(F)cc3)nc3sccn23)n1)c1ccccc1
inactive: GI50 (HT29 colon) 2.31 µM | GI50 (SN12C renal) 6.86 µM | GI50 (SW-620 colon) 6.55 µM | GI50 (M14 melanoma) 4.94 µM | GI50 (OVCAR-4 ovarian) 5.6 µM | GI50 (SK-MEL-28 melanoma) 9.36 µM | GI50 (SK-MEL-5 melanoma) 2.45 µM | GI50 (SR leukemia) 3.46 µM | GI50 (SF-268 CNS) 6.63 µM
13.7 µM: TGI (SK-MEL-5 melanoma)
> 100 µM: TGI (HT29 colon) | TGI (SN12C renal) | TGI (SW-620 colon) | TGI (M14 melanoma) | TGI (OVCAR-4 ovarian) | TGI (SK-MEL-28 melanoma) | TGI (SR leukemia) | TGI (SF-268 CNS)

COc1ccc(OC)c(Nc2nc(-c3c(C)nc4sccn34)cs2)c1
> 100 µM: TGI (HT29 colon) | TGI (SN12C renal) | TGI (SW-620 colon) | TGI (M14 melanoma) | TGI (OVCAR-4 ovarian) | TGI (SK-MEL-28 melanoma) | TGI (NCI-H522 lung) | TGI (SK-MEL-5 melanoma) | TGI (SF-268 CNS)
inactive: GI50 (HT29 colon) > 100 µM | GI50 (SN12C renal) > 100 µM | GI50 (SW-620 colon) > 100 µM | GI50 (M14 melanoma) > 100 µM | GI50 (OVCAR-4 ovarian) 14.2 µM | GI50 (SK-MEL-28 melanoma) 58.9 µM | GI50 (NCI-H522 lung) 52.6 µM | GI50 (SK-MEL-5 melanoma) 34.9 µM | GI50 (SF-268 CNS) 29.7 µM

COC(=O)CCC(=O)NC1C2CC3CC(C2)CC1C3 (stereo not given)
> 100 µM: TGI (HT29 colon) | TGI (SN12C renal) | TGI (SW-620 colon) | TGI (M14 melanoma) | TGI (OVCAR-4 ovarian) | TGI (SK-MEL-28 melanoma) | TGI (NCI-H522 lung) | TGI (SK-MEL-5 melanoma) | TGI (SF-268 CNS)

O=[N+]([O-])c1ccc(Cl)cc1C1SCc2nc3ccccc3n21 (stereo not given)
> 100 µM: TGI (HT29 colon) | TGI (SN12C renal) | TGI (SW-620 colon) | TGI (M14 melanoma) | TGI (OVCAR-4 ovarian) | TGI (SK-MEL-28 melanoma) | TGI (SF-268 CNS)
84.6 µM: TGI (SK-MEL-5 melanoma)
80.1 µM: TGI (NCI-H522 lung)

C=C1[C@@H]([C@@]2(C)C=CC(=O)C(C)(C)[C@@H]2CC(=O)OC)CC[C@@]2(C)C(c3ccoc3)OC(=O)[C@H]3O[C@]132 (stereo not given in full)
> 100 µM: TGI (HT29 colon) | TGI (SN12C renal) | TGI (SW-620 colon) | TGI (M14 melanoma) | TGI (OVCAR-4 ovarian) | TGI (SK-MEL-28 melanoma) | TGI (NCI-H522 lung) | TGI (SK-MEL-5 melanoma) | TGI (SF-268 CNS)

Cc1ncc([N+](=O)[O-])n1CCNC(=O)Cn1c([N+](=O)[O-])cnc1C
> 100 µM: TGI (HT29 colon) | TGI (SN12C renal) | TGI (SW-620 colon) | TGI (M14 melanoma) | TGI (SK-MEL-28 melanoma) | TGI (NCI-H522 lung) | TGI (SK-MEL-5 melanoma) | TGI (SR leukemia) | TGI (SF-268 CNS)

COc1ccc(Nc2c3ccccc3nc3[nH]c4ccccc4c23)cc1
inactive: GI50 (HT29 colon) 16.6 µM | GI50 (SN12C renal) 18.5 µM | GI50 (SW-620 colon) 9.89 µM | GI50 (SK-MEL-28 melanoma) 18.5 µM | GI50 (NCI-H522 lung) 41.5 µM | GI50 (SK-MEL-5 melanoma) 5.52 µM | GI50 (SR leukemia) 3.84 µM | GI50 (SF-268 CNS) 17.2 µM
> 50 µM: TGI (HT29 colon) | TGI (SN12C renal) | TGI (SW-620 colon) | TGI (SK-MEL-28 melanoma) | TGI (NCI-H522 lung) | TGI (SK-MEL-5 melanoma) | TGI (SR leukemia) | TGI (SF-268 CNS)

CCOC(OC1=C(C#N)CCCC1)C(C)[Se]c1ccccc1 (stereo not given)
63.8 µM: TGI (SR leukemia)
89.9 µM: TGI (SN12C renal)
55.6 µM: TGI (SK-MEL-5 melanoma)
47.6 µM: TGI (OVCAR-4 ovarian)
71.6 µM: TGI (SK-MEL-28 melanoma)
> 100 µM: TGI (HT29 colon) | TGI (M14 melanoma)
46.6 µM: TGI (SF-268 CNS)
30.8 µM: TGI (NCI-H522 lung)

O=C1C=CC(O)C2C1CC13SSC4(CC5C(=O)C=CC(O)C5N4C1=O)C(=O)N23 (stereo not given)
0.743 µM: TGI (SN12C renal)
0.0727 µM: TGI (SR leukemia)
4.89 µM: TGI (OVCAR-4 ovarian)
0.752 µM: TGI (M14 melanoma)
0.136 µM: TGI (SW-620 colon)
0.544 µM: TGI (NCI-H522 lung)
1.06 µM: TGI (SK-MEL-5 melanoma)
5.85 µM: TGI (SF-268 CNS)
1.91 µM: TGI (SK-MEL-28 melanoma)

Oc1ccc(Cl)cc1CNc1nc2ccccc2[nH]1
inactive: GI50 (HT29 colon) 17.2 µM | GI50 (SN12C renal) 13.7 µM | GI50 (SW-620 colon) 15.5 µM | GI50 (OVCAR-4 ovarian) 11.4 µM | GI50 (SK-MEL-28 melanoma) 13.6 µM | GI50 (NCI-H522 lung) 11.9 µM | GI50 (SK-MEL-5 melanoma) 13 µM | GI50 (SR leukemia) 13.4 µM | GI50 (SF-268 CNS) 14.3 µM
30.2 µM: TGI (SF-268 CNS)
25.6 µM: TGI (SK-MEL-5 melanoma)
37.5 µM: TGI (OVCAR-4 ovarian)
27.7 µM: TGI (NCI-H522 lung)
59.4 µM: TGI (SR leukemia)
35.5 µM: TGI (HT29 colon)
29.4 µM: TGI (SN12C renal)
31.9 µM: TGI (SW-620 colon)
27.9 µM: TGI (SK-MEL-28 melanoma)

CN(C)C(=S)/N=c1\ss/c(=N\S(=O)(=O)c2ccccc2)n1N(C)C
37.8 µM: TGI (NCI-H522 lung)
> 100 µM: TGI (SN12C renal) | TGI (SW-620 colon) | TGI (M14 melanoma) | TGI (OVCAR-4 ovarian) | TGI (SK-MEL-28 melanoma) | TGI (SK-MEL-5 melanoma) | TGI (SR leukemia) | TGI (SF-268 CNS)

Cc1cc2c(C)n(Cc3ccc(Cl)cc3Cl)nc2c(C(=O)O)c1C
> 100 µM: TGI (HT29 colon) | TGI (SN12C renal) | TGI (SW-620 colon) | TGI (SK-MEL-28 melanoma) | TGI (SF-268 CNS)

O=C(O)C1=C(C(=O)Nc2ccc(NC(=O)C3=C(C(=O)O)C4C=CC3C4)cc2)C2C=CC1C2
> 100 µM: TGI (HT29 colon) | TGI (SN12C renal) | TGI (SW-620 colon) | TGI (M14 melanoma) | TGI (OVCAR-4 ovarian) | TGI (SK-MEL-28 melanoma) | TGI (SK-MEL-5 melanoma) | TGI (SR leukemia) | TGI (SF-268 CNS)

CN(/N=N/c1nc(OCc2ccccc2)c2[nH]cnc2n1)C(=O)Oc1ccc([N+](=O)[O-])cc1
29.5 µM: TGI (SF-268 CNS)
inactive: GI50 (SW-620 colon) 9.02 µM | GI50 (M14 melanoma) 8.87 µM | GI50 (OVCAR-4 ovarian) 22.8 µM | GI50 (SK-MEL-28 melanoma) 12.4 µM | GI50 (SK-MEL-5 melanoma) 6.89 µM | GI50 (SR leukemia) 26.1 µM | GI50 (SF-268 CNS) 9.44 µM
> 50 µM: TGI (OVCAR-4 ovarian) | TGI (SK-MEL-28 melanoma) | TGI (SR leukemia)
16.3 µM: TGI (SK-MEL-5 melanoma)
26.1 µM: TGI (SW-620 colon)
18.4 µM: TGI (M14 melanoma)

O=C1CC(c2ccc(Cl)cc2)Oc2ccccc21 (stereo not given)
21.2 µM: TGI (HT29 colon)
27.3 µM: TGI (SK-MEL-5 melanoma)
58.4 µM: TGI (M14 melanoma)
28 µM: TGI (SR leukemia)
> 100 µM: TGI (SW-620 colon) | TGI (OVCAR-4 ovarian) | TGI (SK-MEL-28 melanoma) | TGI (SF-268 CNS)

CN1CC(=O)N(C)c2nc[nH]c2C1=O
> 100 µM: TGI (HT29 colon) | TGI (SN12C renal) | TGI (SW-620 colon) | TGI (M14 melanoma) | TGI (OVCAR-4 ovarian) | TGI (SK-MEL-28 melanoma) | TGI (SK-MEL-5 melanoma) | TGI (SR leukemia) | TGI (SF-268 CNS)

C=CCCCc1ccc(C(O)CCCCCCCCCCCC)o1 (stereo not given)
31.4 µM: TGI (SN12C renal)
37.2 µM: TGI (SK-MEL-5 melanoma)
38.9 µM: TGI (M14 melanoma)
62 µM: TGI (SW-620 colon)
35 µM: TGI (SF-268 CNS)
inactive: GI50 (HT29 colon) 17.1 µM | GI50 (SN12C renal) 17.2 µM | GI50 (SW-620 colon) 22.8 µM | GI50 (M14 melanoma) 18.9 µM | GI50 (SK-MEL-28 melanoma) 20.6 µM | GI50 (NCI-H522 lung) 15.3 µM | GI50 (SK-MEL-5 melanoma) 18.5 µM | GI50 (SF-268 CNS) 16.1 µM
35.4 µM: TGI (HT29 colon)
29.7 µM: TGI (NCI-H522 lung)
50.6 µM: TGI (SK-MEL-28 melanoma)
